# Source: US10450316B2, “Certain protein kinase inhibitor” (Chongqing Fochon Pharmaceutical Co., Ltd., priority 2015, dated 2019)
# System: BE(2)-C cell
# Assay: Cell proliferation assay (MTS) in BE(2)-C cells
# Assay type: cell-based
# Conditions: Homo sapiens, inhibition of BE(2)-C cell proliferation, 48 h
# Procedure: MTS testing kit was purchased from Promega. The DMEM, Fetal bovine serum and Penicillin-Streptomycin were purchased from Gibco. Dimethyl sulfoxide (DMSO) was purchased from Sigma.
# To investigate whether a compound is able to inhibit the activity of CDK4/6 in cells, mechanism-based assays using BE(2)-C cell (ATCC® number:CRL-2268) were developed. In the assay, inhibition of CDK4/6 was detected by the inhibition of BE(2)-C cell cells proliferation. BE(2)-C cell cells were cultured in culture flasks to 40-80% confluence in DMEM plus 10% fetal bovine serum. Cells were collected and plated onto 96-well plates at cell density of 3000 cells/well. Plates were incubated overnight at 37° C., with 5% CO2 to adhere. Compounds were added to the plates, the final compound concentrations were 10000, 3333, 1111, […], 123.5, 41.2, 13.7, 4.6 and 1.5 nM. Place plates at 37° C., with 5% CO2 for 48 h. After removing the medium, 20 μl MTS/100 μl medium mixture solution were added to each well and incubate the plates for exactly 2 hours. The reaction was terminated by adding 25 μl 10% SDS per well. Measure absorbance at 490 nm and 650 nm (reference wavelength). IC50 was calculated using GraphPad Prism 5.0.
# Select compounds prepared as described above were assayed according to the biological procedures described herein. “++++” stands for IC50 value below about 10 nM. “+++” stands for IC50 value between greater than about 10 nM to about 100 nM. “++” stands for IC50 value between greater than about 100 nM to about […]. “+” stands for IC50 value greater than 1 μM.
row,Compound,IC50
1,"CCN1CCC2(CC1)CN(Cc1ccc(Nc3ncc(F)c(-c4cc(F)c5nc6n(c5c4)[C@H](C(F)(F)F)CC6)n3)nc1)C2 [Example 63, (S)-N-(5-((7-ethyl-2,7-diazaspiro[3.5]nonan-2-yl)methyl)pyridin-2-yl)-5-fluoro-4-(5-fluoro-1-(trifluoromethyl)-2,3-dihydro-1H-benzo[d]pyrrolo[1,2-a]imidazol-7-yl)pyrimidin-2-amine]",10 to 100 nM
2,"CN1CC2(C1)CN(Cc1ccc(Nc3ncc(F)c(-c4cc(F)c5nc6n(c5c4)C(C)(C)CC6)n3)nc1)C2 [Example 118, 5-fluoro-4-(5-fluoro-1,1-dimethyl-2,3-dihydro-1H-benzo[d]pyrrolo[1,2-a]imidazol-7-yl)-N-(5-((6-methyl-2,6-diazaspiro[3.3]heptan-2-yl)methyl)pyridin-2-yl)pyrimidin-2-amine]",10 to 100 nM
3,"C[C@@H]1CCc2nc3c(F)cc(-c4nc(Nc5ccc(CN6CCC7(CCNCC7)CC6)cn5)ncc4F)cc3n21 [Example 92, (R)-N-(5-((3,9-diazaspiro[5.5]undecan-3-yl)methyl)pyridin-2-yl)-5-fluoro-4-(5-fluoro-1-methyl-2,3-dihydro-1H-benzo[d]pyrrolo[1,2-a]imidazol-7-yl)pyrimidin-2-amine]",> 100 nM
4,"CCN1CCN(Cc2ccc(Nc3ncc(F)c(-c4cc(F)c5nc6n(c5c4)C4(CC6)CC4)n3)nc2)CC1 [Example 15, N-(5-((4-ethylpiperazin-1-yl)methyl)pyridin-2-yl)-5-fluoro-4-(5-fluoro-2,3-dihydrospiro[benzo[d]pyrrolo[1,2-a]imidazole-1,1′-cyclopropan]-7-yl)pyrimidin-2-amine]",> 100 nM
5,"Fc1cnc(Nc2ccc(CN3CC4CNC4C3)cn2)nc1-c1cc(F)c2nc3n(c2c1)C1(CC3)CC1 (centres unmarked) [Example 141, N-(5-((3,6-diazabicyclo[3.2.0]heptan-3-yl)methyl)pyridin-2-yl)-5-fluoro-4-(5-fluoro-2,3-dihydro-spiro[benzo[d]pyrrolo[1,2-a]imidazole-1,1′-cyclo-propan]-7-yl)pyrimidin-2-amine]",> 1000 nM
6,"CN1CCC2(CC1)CN(Cc1ccc(Nc3ncc(F)c(-c4cc(F)c5nc6n(c5c4)[C@H](CF)CC6)n3)nc1)C2 [Example 21, (S)-5-fluoro-4-(5-fluoro-1-(fluoromethyl)-2,3-dihydro-1H-benzo[d]pyrrolo[1,2-a]imidazol-7-yl)-N-(5-((7-methyl-2,7-diazaspiro[3.5]nonan-2-yl)methyl)pyridin-2-yl)pyrimidin-2-amine]",> 100 nM
7,"Fc1cnc(Nc2ccc(CN3CCNCC3)cn2)nc1-c1cc(F)c2nc3n(c2c1)CCC3 [Example 149, 5-fluoro-4-(5-fluoro-2,3-dihydro-1H-benzo[d]pyrrolo[1,2-a]imidazol-7-yl)-N-(5-(piperazin-1-ylmethyl)pyridin-2-yl)pyrimidin-2-amine]",> 100 nM
8,"Fc1cnc(Nc2ccc(CN3CCN4CCOC[C@H]4C3)cn2)nc1-c1cc(F)c2nc3n(c2c1)C1(CC3)CC1 [Example 148, (R)-5-fluoro-4-(5-fluoro-2,3-dihydrospiro[benzo [d]pyrrolo[1,2-a]imidazole-1,1′-cyclopropan]-7-yl)-N-(5-((hexahydropyrazino[2,1-c][1,4]oxazin-8(1H)-yl)methyl)pyridin-2-yl)pyrimidin-2-amine]",10 to 100 nM
9,"CC1CCc2nc3c(F)cc(-c4nc(Nc5ccc(CN6CCNCC6)cn5)ncc4F)cc3n21 (stereo in doubt) [Example 155, (R)-5-fluoro-4-(5-fluoro-1-methyl-2,3-dihydro-1H-benzo[d]pyrrolo[1,2-a]imidazol-7-yl)-N-(5-(piperazin-1-ylmethyl)pyridin-2-yl)pyrimidin-2-amine]",> 100 nM
10,CCN1CC2(CCN(Cc3ccc(Nc4ncc(F)c(-c5cc(F)c6nc7n(c6c5)[C@H](C(F)(F)F)CC7)n4)nc3)CC2)C1 [Example 66],10 to 100 nM
11,"CC1(C)CCc2nc3c(F)cc(-c4nc(Nc5ccc(CN6CCC7(CC6)CNC7)cn5)ncc4F)cc3n21 [Example 114, N-(5-((2,7-diazaspiro[3.5]nonan-7-yl)methyl)pyridin-2-yl)-5-fluoro-4-(5-fluoro-1,1-dimethyl-2,3-dihydro-1H-benzo[d]pyrrolo[1,2-a]imidazol-7-yl)pyrimidin-2-amine]",> 100 nM
12,"CCN1C2CCC1CN(Cc1ccc(Nc3ncc(F)c(-c4cc(F)c5nc6n(c5c4)C(C)(C)CC6)n3)nc1)C2 [Example 131, N-(5-((8-ethyl-3,8-diazabicyclo[3.2.1]octan-3-yl)methyl)pyridin-2-yl)-5-fluoro-4-(5-fluoro-1,1-dimethyl-2,3-dihydro-1H-benzo[d]pyrrolo[1,2-a]imidazol-7-yl)pyrimidin-2-amine]",10 to 100 nM
13,"C[C@@H]1CCc2nc3c(F)cc(-c4nc(Nc5ccc(CN6CC7CNCC7C6)cn5)ncc4F)cc3n21 (stereo partly drawn) [Example 98, 5-fluoro-4-((R)-5-fluoro-1-methyl-2,3-dihydro-1H-benzo[d]pyrrolo[1,2-a]imidazol-7-yl)-N-(5-((hexahydropyrrolo[3,4-c]pyrrol-2(1H)-yl)methyl)pyridin-2-yl)pyrimidin-2-amine]",> 100 nM
14,"CC1(C)CCc2nc3c(F)cc(-c4cc(Nc5ncc(CN6CCNCC6)cn5)ncc4F)cc3n21 [Example 164, N-(5-fluoro-4-(5-fluoro-1,1-dimethyl-2,3-dihydro-1H-benzo[d]pyrrolo[1,2-a]imidazol-7-yl)pyridin-2-yl)-5-(piperazin-1-ylmethyl)pyrimidin-2-amine]",10 to 100 nM
15,"CCN1CCN(Cc2ccc(Nc3ncc(F)c(-c4cc(F)c5nc6n(c5c4)[C@H](CF)CC6)n3)nc2)CC1 [Example 6, (S)—N-(5-((4-ethylpiperazin-1-yl)methyl)pyridin-2-yl)-5-fluoro-4-(5-fluoro-1-(fluoromethyl)-2,3-dihydro-1H-benzo[d]pyrrolo[1,2-a]imidazol-7-yl)pyrimidin-2-amine]",> 100 nM
16,"Fc1cnc(Nc2ccc(CN3CCNCC3)cn2)nc1-c1cc(F)c2nc3n(c2c1)[C@H](C(F)(F)F)CC3 [Example 16, (S)-5-fluoro-4-(5-fluoro-1-(trifluoromethyl)-2,3-dihydro-1H-benzo[d]pyrrolo[1,2-a]imidazol-7-yl)-N-(5-(piperazin-1-ylmethyl)pyridin-2-yl)pyrimidin-2-amine]",10 to 100 nM
17,"CN1C2CCC1CN(Cc1ccc(Nc3ncc(F)c(-c4cc(F)c5nc6n(c5c4)C(C)(C)CC6)n3)nc1)C2 [Example 130, 5-fluoro-4-(5-fluoro-1,1-dimethyl-2,3-dihydro-1H-benzo[d]pyrrolo[1,2-a]imidazol-7-yl)-N-(5-((8-methyl-3,8-diazabicyclo[3.2.1]octan-3-yl)methyl)pyridin-2-yl)pyrimidin-2-amine]",10 to 100 nM
18,"CC1(C)CCc2nc3c(F)cc(-c4nc(Nc5ccc(CN6CC7(CCNCC7)C6)cn5)ncc4F)cc3n21 [Example 111, N-(5-((2,7-diazaspiro[3.5]nonan-2-yl)methyl)pyridin-2-yl)-5-fluoro-4-(5-fluoro-1,1-dimethyl-2,3-dihydro-1H-benzo[d]pyrrolo[1,2-a]imidazol-7-yl)pyrimidin-2-amine]",> 100 nM
19,"CN1CC2CCC(C1)N2Cc1ccc(Nc2ncc(F)c(-c3cc(F)c4nc5n(c4c3)[C@H](C(F)F)CC5)n2)nc1 [Example 55, 4-((S)-1-(difluoromethyl)-5-fluoro-2,3-dihydro-1H-benzo[d]pyrrolo[1,2-a]imidazol-7-yl)-5-fluoro-N-(5-((3-methyl-3,8-diazabicyclo[3.2.1]octan-8-yl)methyl)pyridin-2-yl)pyrimidin-2-amine]",10 to 100 nM
20,"Fc1cnc(Nc2ccc(CN3CCN4CCC[C@@H]4C3)cn2)nc1-c1cc(F)c2nc3n(c2c1)[C@H](C(F)(F)F)CC3 [Example 60, 5-fluoro-4-((S)-5-fluoro-1-(trifluoromethyl)-2,3-dihydro-1H-benzo[d]pyrrolo[1,2-a]imidazol-7-yl)-N-(5-(((R)-hexahydropyrrolo[1,2-a]pyrazin-2(1H)-yl)methyl)pyridin-2-yl)pyrimidin-2-amine]",10 to 100 nM
21,"CN1CC2CCC(C1)N2Cc1ccc(Nc2ncc(F)c(-c3cc(F)c4nc5n(c4c3)[C@H](C(F)(F)F)CC5)n2)nc1 [Example 77, 5-fluoro-4-((S)-5-fluoro-1-(trifluoromethyl)-2,3-dihydro-1H-benzo[d]pyrrolo[1,2-a]imidazol-7-yl)-N-(5-((3-methyl-3,8-diazabicyclo[3.2.1]octan-8-yl)methyl)pyridin-2-yl)pyrimidin-2-amine]",10 to 100 nM
22,"CN1CCC2(CC1)CN(Cc1ccc(Nc3ncc(F)c(-c4cc(F)c5nc6n(c5c4)[C@H](C(F)F)CC6)n3)nc1)C2 [Example 43, (S)-4-(1-(difluoromethyl)-5-fluoro-2,3-dihydro-1H-benzo[d]pyrrolo[1,2-a]imidazol-7-yl)-5-fluoro-N-(5-((7-methyl-2,7-diazaspiro[3.5]nonan-2-yl)methyl)pyridin-2-yl)pyrimidin-2-amine]",10 to 100 nM
23,"CN1CC2CN(Cc3ccc(Nc4ncc(F)c(-c5cc(F)c6nc7n(c6c5)[C@H](C(F)F)CC7)n4)nc3)CC2C1 (stereo partly drawn) [Example 49, 4-((S)-1-(difluoromethyl)-5-fluoro-2,3-dihydro-1H-benzo[d]pyrrolo[1,2-a]imidazol-7-yl)-5-fluoro-N-(5-((5-methylhexahydropyrrolo[3,4-c]pyrrol-2(1H)-yl)methyl)pyridin-2-yl)pyrimidin-2-amine]",10 to 100 nM
